The EC50 is the concentration giving half of the maximal effect. Broadly, the melting point is the temperature of the solid-liquid transition. In general, IC50 refers to the midpoint of a concentration-inhibition curve.

Series [1] concerns Leishmania major promastigotes. The series is described as follows: Leishmania major promastigote viability, MTT assay. It counts as cell-based. Particulars: Leishmania major promastigotes after 72 h, means of n = 3, SD ± 15%. Background: Tetrazolium assays rely on reduction of a dye to a coloured formazan, in cell work by metabolically active cells.
The test system of the next series is Toxoplasma gondii. The series is described as follows: Toxoplasma gondii tachyzoite (RH strain) growth in infected Vero cells, infection index. The series is classed as cell-based. Particulars: after 72 h, means of n = 3, SD ± 15%, read-out: EC50 (T. gondii). Here is the method: Serial passages of cells of the Vero cell line (ATCC® CCL81™, Manassas, VA, USA) were applied for the cultivation of T. gondii tachyzoites of the RH strain (a gift from Dr. Saeed El-Ashram, State Key Laboratory for Agrobiotechnology, China Agricultural University, Beijing, China). Vero cells were cultured by using complete RPMI 1640 medium with heat-inactivated 10% FBS in a humidified 5% CO2 atmosphere, at 37 °C. The 96-well plates (5 × 10^3 cells/well in 200 µL RPMI 1640 medium) were used for the cultivation of the Vero cells and then incubated, at 37 °C, and 5% CO2 for one day, followed by removal of medium and washing the cells with PBS. Then, RPMI 1640 medium containing 2% FBS and T. gondii tachyzoites (RH strain) was given to the cells at a ratio of 5 (parasite):1 (Vero cells). After incubation, at 37 °C, and 5% CO2 for 5 h, cells were washed with PBS and then treated as described below.
Control: RPMI 1640 medium containing DMSO (1%)
Experimental: Medium + compounds (dissolved in DMSO) (50, 25, 12.5, 6.25, 3.13, 1.65, and 0.75 µg mL^−1).
After incubation, at 37 °C, and 5% CO2 for 72 h, the cells were washed with PBS, fixed in 10% formalin and stained with 1% toluidine blue. Examination of the cells and determination of the infection index (number of cells infected from 200 cells tested) of T. gondii were carried out with an inverted photomicroscope. The following equation was used for the calculation of the inhibition in %:Inhibition (%) = (I Control − I Experimental)/(I Control) × 100 where “I Control” refers to the infection index of untreated cells and “I Experimental” refers to the infection index of cells treated with test compounds.
Then, effects of test compounds on parasite growth were expressed as EC50 (effective concentration at 50%) values. EC50 values were obtained from three independent experiments.

The next series relates to macrophages. The series is described as follows: Effects of test compounds on macrophages (toxicity). It counts as cell-based, BALB/c mice. Particulars: means of n = 3, SD ± 15%.
Series [2] deals with Leishmania major amastigotes. In words: Leishmania major amastigotes in peritoneal macrophages, percentage of infected macrophages (Giemsa). The series is classed as cell-based. Particulars: Leishmania major amastigotes after 72 h, means of n = 3, SD ± 15%.
The next series relates to Vero cells. In words: In vitro cytotoxicity MTT assay in Vero cells. The series is classed as cell-based. The note with it: Chlorocebus sabaeus; after 72 h; Vero cells (African green monkey kidney epithelial cells); means of n = 3, SD ± 15%. Here is the method:
MTT assays were carried out for a cytotoxicity evaluation of the test compounds. Briefly, Vero cells were cultured in 96-well plates (5 × 10^3 cells/well/200 µL) for 24 h in RPMI 1640 medium with 10% FBS and 5% CO2, at 37 °C. Cells were washed with PBS, followed by treatment with test compounds for 72 h at varying concentrations (50, 25, 12.5, 6.25, 3.13, 1.65, and 0.75 µg mL^−1) in 10% FBS medium. Cells treated solely with medium in 2% FBS were used as a negative control. The supernatant was discarded, 50 µL RPMI 1640 medium containing 14 µL MTT (5 mg mL^−1) was added, and the cells were incubated for 4 h. The supernatant was removed again, and 150 µL DMSO was added in order to dissolve the formed formazan. A FLUOstar OPTIMA spectrophotometer was applied for colorimetric analysis (λ = 540 nm). The cytotoxicity was expressed by IC50 values (concentration which caused a 50% reduction in viable cells). IC50 values were calculated from three independent experiments.

Each structure is given as a SMILES string. Some results are limits rather than exact numbers.

For the compound `N#CC1=C(n2cccc2)n2c(nc3ccccc32)NC1c1ccccc1F` (centres unmarked) [Compound 4c, 4-Pyrrolo-2-(2-fluorophenyl)-1,2-dihydropyrimido[1,2-a]benzimidazole-3-carbonitrile], the melting point was > 240 °C (dec.). Moreover, in series [1] (Leishmania major, 72 h), the midpoint of the response, the EC50, lay at 15.2 µM. Moreover, the EC50 in the series with Toxoplasma gondii is 24.8 µM. In addition, 43.9 µM corresponded to half-maximal inhibition in the series with macrophages (Mus musculus, Macrophage) (IC50). The compound further yielded an EC50 in series [2] (Leishmania major, 72 h) of 49.2 µM. Also, it took 23.6 µM to reach half-maximal inhibition in the series with Vero cells (IC50).

`N#CC1=C(N)n2c(nc3ccccc32)NC1c1cc(F)cc(F)c1` (centres unmarked) [Compound 2b, 4-Amino-2-(3,5-difluorophenyl)-1,2-dihydropyrimido[1,2-a]benzimidazole-3-carbonitrile] showed a melting point of 279 to 280 °C. In series [1] (Leishmania major, 72 h), this compound showed an EC50 of 108 µM. In addition, the concentration for a half-maximal effect (EC50) in the series with Toxoplasma gondii was determined as 43.6 µM. Besides, the IC50 in the series with macrophages (Mus musculus, Macrophage) was determined as 28.5 µM. This compound showed an EC50 in series [2] (Leishmania major, 72 h) of 22.9 µM. Moreover, the IC50 with Vero cells was determined as 33.1 µM.

`COc1cc(C2Nc3nc4ccccc4n3C(N)=C2C#N)cc(Br)c1OC` (centres unmarked) [Compound 2e, 4-Amino-2-(3-bromo-4,5-dimethoxyphenyl)-1,2-dihydropyrimido[1,2-a]benzimidazole-3-carbonitrile]: the melting point was 282 to 283 °C. This compound also showed a half-maximal effective concentration (EC50) in series [1] (Leishmania major, 72 h) of 77.9 µM. In the series on Toxoplasma gondii, the EC50 turned out to be 28.6 µM. Moreover, the half-maximal inhibitory concentration (IC50) with macrophages (Mus musculus, Macrophage) turned out to be 64 µM. This compound also displayed an IC50 with macrophages of 63.8 µM. This compound also had an EC50 in series [2] (Leishmania major, 72 h) of 75.5 µM. The compound also gave an IC50 with Vero cells of 57.2 µM.

Turning to `N#CC1=C(N)n2c(nc3ccccc32)NC1c1ccc(F)cc1` (centres unmarked) [Compound 2d], the EC50 was determined as 14.4 µM in series [1] (Leishmania major, 72 h); 27.8 µM with Toxoplasma gondii; 26.9 µM in series [2] (Leishmania major, 72 h). Besides, the IC50 is 19.3 µM with macrophages (Mus musculus, Macrophage) and 26.9 µM in the series on Vero cells.

Turning to `C[C@@H]1[C@H](O)[C@@H](C)/C=C/C=C/C=C/C=C/C=C/C=C/C=C/[C@H](O[C@@H]2O[C@H](C)[C@@H](O)[C@H](N)[C@@H]2O)C[C@@H]2O[C@](O)(C[C@@H](O)C[C@@H](O)[C@H](O)CC[C@@H](O)C[C@@H](O)CC(=O)O[C@H]1C)C[C@H](O)[C@H]2C(=O)O` [AmB, Amphotericin B, reference compound], the EC50 worked out at 0.83 µM in series [1] (Leishmania major, 72 h) and 0.47 µM in series [2] (Leishmania major, 72 h). This compound returned an IC50 with Vero cells of 7.7 µM.

For `N#Cc1c(-c2cccc(F)c2)nc2nc3ccccc3n2c1N` [Compound 3a, 4-Amino-2-(3-fluorophenyl)pyrimido[1,2-a]benzimidazole-3-carbonitrile], the melting point is > 370 °C (dec.). The compound further yielded an EC50 in series [1] (Leishmania major, 72 h) of 35.6 µM. Further, in the series on Toxoplasma gondii, the EC50 was 35.9 µM. Also, the IC50 with macrophages (Mus musculus, Macrophage) is 22.4 µM. This compound also displayed an EC50 in series [2] (Leishmania major, 72 h) of 28 µM. For the same compound, the IC50 with Vero cells stood at 38.3 µM.

As to `O=C1C(O)=C([C@H]2CC[C@H](c3ccc(Cl)cc3)CC2)C(=O)c2ccccc21` [ATO, atovaquone, reference compound], in the series on Toxoplasma gondii, the EC50 stood at 0.07 µM. In addition, it took 9.5 µM to reach half-maximal inhibition in the series on Vero cells (IC50).

`N#CC1=C(n2cccc2)n2c(nc3ccccc32)NC1c1cc(F)cc(F)c1` (centres unmarked) [Compound 4b, 4-Pyrrolo-2-(3,5-difluorophenyl)-1,2-dihydropyrimido[1,2-a]benzimidazole-3-carbonitrile] showed a melting point above 240 °C. In series [1] (Leishmania major, 72 h), this compound showed an EC50 of 28.9 µM. In the series with Toxoplasma gondii, the EC50 was determined as 18.2 µM. In addition, in the series with macrophages (Mus musculus, Macrophage), it took 39.9 µM to reach half-maximal inhibition (IC50). In series [2] (Leishmania major, 72 h), this compound displayed an EC50 of 46.1 µM. The IC50 with Vero cells was 32.4 µM.

Consider `N#CC1=C(n2cccc2)n2c(nc3ccccc32)NC1c1ccc(F)cc1` (centres unmarked) [Compound 4d, 4-Pyrrolo-2-(4-fluorophenyl)-1,2-dihydropyrimido[1,2-a]benzimidazole-3-carbonitrile], for which the melting point was above 260 °C. Besides, in series [1] (Leishmania major, 72 h), a half-maximal response (EC50) required 32.1 µM. The EC50 in the series with Toxoplasma gondii worked out at 34.9 µM. Half-maximal inhibition in the series with macrophages (Mus musculus, Macrophage) (IC50) was put at 47.3 µM. In addition, a half-maximal response in series [2] (Leishmania major, 72 h) (EC50) required 51.5 µM. In addition, in the series with Vero cells, the IC50 came to 41.4 µM.

With `N#CC1=C(N)n2c(nc3ccccc32)NC1c1ccccc1F` (centres unmarked) [Compound 2c], the EC50 in series [1] (Leishmania major, 72 h) came to 49.8 µM; in the series on Toxoplasma gondii it was 26.9 µM; in series [2] (Leishmania major, 72 h), 24.9 µM. The IC50 in the series on macrophages (Mus musculus, Macrophage) worked out at 31.4 µM; with Vero cells it was 18.3 µM.

With `N#Cc1c(-c2ccccc2F)nc2nc3ccccc3n2c1N` [Compound 3c, 4-Amino-2-(2-fluorophenyl)pyrimido[1,2-a]benzimidazole-3-carbonitrile], the melting point was > 350 °C (dec.). The concentration giving a half-maximal response (EC50) in series [1] (Leishmania major, 72 h) turned out to be 32 µM. Moreover, the EC50 in the series on Toxoplasma gondii worked out at 20.8 µM. The compound also had an IC50 with macrophages (Mus musculus, Macrophage) of 21.1 µM. Also, in series [2] (Leishmania major, 72 h), the response was half-maximal at 27 µM (EC50). Also, the IC50 with Vero cells stood at 25.7 µM.

On to `N#Cc1c(-c2cc(F)cc(F)c2)nc2nc3ccccc3n2c1N` [Compound 3b, 4-Amino-2-(3,5-difluorophenyl)pyrimido[1,2-a]benzimidazole-3-carbonitrile], for which the melting point is > 370 °C (dec.). In addition, the EC50 in series [1] (Leishmania major, 72 h) stood at 13.7 µM. For the same compound, the EC50 in the series on Toxoplasma gondii was found to be 2.8 µM. Also, the IC50 in the series with macrophages (Mus musculus, Macrophage) was 24.3 µM. The EC50 in series [2] (Leishmania major, 72 h) was found to be 29 µM. Inhibition in the series on Vero cells was half-maximal at 22.7 µM (IC50).

As to `N#CC1=C(N)n2c(nc3ccccc32)NC1c1cccc(F)c1` (centres unmarked) [Compound 2a, 4-Amino-2-(3-fluorophenyl)-1,2-dihydropyrimido[1,2-a]benzimidazole-3-carbonitrile], the melting point is 216 to 217 °C (dec.). The compound further came in with an EC50 in series [1] of 0.39 µM. In series [1] (Leishmania major, 72 h), the EC50 was 0.2 to 0.4 µM. Moreover, the EC50 in the series on Toxoplasma gondii came to 4.59 µM. The compound also had a concentration for half-maximal inhibition (IC50) in the series on macrophages (Mus musculus, Macrophage) of 0.98 µM. The same compound showed an EC50 in series [2] of 0.2 µM. In series [2] (Leishmania major, 72 h), this compound showed an EC50 of 0.2 to 0.4 µM. The compound also gave an IC50 in the series with Vero cells of 4.32 µM.

Turning to `N#CC1=C(N)n2c(nc3ccccc32)NC1c1cccnc1` (centres unmarked) [Compound 2f, 4-Amino-2-(3-pyridyl)-1,2-dihydropyrimido[1,2-a]benzimidazole-3-carbonitrile], the melting point was 289 to 290 °C. This compound returned an EC50 in series [1] (Leishmania major, 72 h) of 53.4 µM. Further, the EC50 in the series with Toxoplasma gondii came out at 60 µM. This compound had an IC50 with macrophages (Mus musculus, Macrophage) of 86 µM. In series [2] (Leishmania major, 72 h), this compound gave an EC50 of 116 µM. In addition, the 50% inhibitory concentration (IC50) with Vero cells stood at 106 µM.

For `N#CC1=C(n2cccc2)n2c(nc3ccccc32)NC1c1cccc(F)c1` (centres unmarked) [Compound 4a, 4-Pyrrolo-2-(3-fluorophenyl)-1,2-dihydropyrimido[1,2-a]benzimidazole-3-carbonitrile], the melting point was > 260 °C (dec.). For the same compound, in series [1] (Leishmania major, 72 h), the midpoint of the response, the EC50, lay at 20.3 µM. The EC50 in the series with Toxoplasma gondii was found to be 33.2 µM. The same compound had an IC50 in the series on macrophages (Mus musculus, Macrophage) of 41.4 µM. The same compound returned an EC50 in series [2] (Leishmania major, 72 h) of 50.9 µM. Moreover, the IC50 in the series with Vero cells stood at 34.9 µM.

With `N#Cc1c(-c2ccc(F)cc2)nc2nc3ccccc3n2c1N` [Compound 3d], the EC50 came to 36.9 µM in series [1] (Leishmania major, 72 h); 41.9 µM in the series on Toxoplasma gondii; 26.1 µM in series [2] (Leishmania major, 72 h). Further, the IC50 in the series on macrophages (Mus musculus, Macrophage) amounted to 20.1 µM; in the series on Vero cells it was 43.5 µM.

For the origin of these results see article PMC9855371, “Antiparasitic Activity of Fluorophenyl-Substituted Pyrimido[1,2-a]benzimidazoles” (Biomedicines, 2023).
